Measurements as given in patent EP0470144B1, “BETA-HYDROXAMATE D-ASPARTIC ACID FOR TREATMENT OF VIRAL INFECTIONS AND TUMOURS” (priority 1989, dated 1990).

Assays:
[1] = Toxicity in dogs (NCI recommendations), intravenous administration; type: in vivo, chiens Beagle
Description: En suivant les recommandations du National Cancer Institute (NCI), on a déterminé : a) la dose maximale non toxique, b) la dose toxique faible, c) la dose maximale toxique non léthale, d) la dose léthale.
Ces études ont été réalisées sur des chiens Beagle âgés de six à sept mois et pesant 6,5 à 7,5 kg. Pour mettre en évidence les effets toxiques du DAH, on a mesuré des paramètres cliniques, morphologiques, biochimiques et hématologiques.
L'évaluation de la fréquence cardiaque, l'électrocardiogramme, la pression artérielle (mesurée par cathétérisme intra-artériel), et la fréquence respiratoire ont été mesurées chez des chiens anesthésiés par l'alphachloralose.

[2] = test system: lymphome L5178Y; test: Antitumour activity in the L5178Y lymphoma model, survival; type: in vivo; details: days 1,2,3,4,5; for Nombre d'animaux survivants: at 120 days
Description: L'activité antitumorale du DAH a été aussi étudiée sur deux autres modèles murins : le lymphome L5178Y et la leucémie P388.
Les cellules de lymphome murin (L5178Y) sont maintenues par passages intrapéritonéaux successifs chez la souris DBA/2 et injectées, pour les essais, à la dose de […] par souris.

Structure (SMILES): N[C@@H](CC(=O)NO)C(=O)O [DAH, D-acide aspartique β-hydroxamate]
- nadir plaquettes ([1]; 5 g/kg, 8th day after injection, return to pre-treatment level seven to ten days later): 39 x 109 plaquettes/l
- nadir plaquettes ([1]; 9 g/kg, twenty-two days after injection): 17 x 109 plaquettes/l
- récupération partielle (plaquettes) ([1]; 9 g/kg, two months later): 56 x 10⁹/l
- fréquence cardiaque, électrocardiogramme, pression artérielle, fréquence respiratoire ([1]; anaesthetised dogs, intravenous 1 to 5 g/kg): aucune modification
- dose maximale non toxique ([1]; dog, in vivo): 2,5-3 g/kg
- dose toxique faible ([1]; dog, in vivo): 5000 mg/kg
- dose toxique maximale non léthale ([1]; dog, in vivo): ~9000 mg/kg
- toxicité de la fonction rénale ou hépatique ([1]; doses up to 9 g/kg): Aucune toxicité
- toxicité sur les lignées granulo-monocytaires et érythrocytaires ([1]; including high doses (9 g/kg)): Aucune toxicité
- dose à partir de laquelle une toxicité sur la lignée plaquettaire a été constatée ([1]; intravenous): ≥ 5000 mg/kg
- Effets toxiques d'apparition immédiate ([1]; intravenous 1 to 10 g/kg (10 % solution), during administration, with anorexia up to 24 hours): vomissements
- tolérance à l'administration réitérée ([1]; intravenous, two weeks, five weekly injections of 1 g/kg): aucun signe d'intolérance autre que des vomissements
- complication rénale ([1]; one dog, dose of more than 10 g/kg, avoided later by prehydration): précipitation des cristaux de DAH dans les tubules rénaux
- T/Cx100 ([2]; 1 g/kg x 3/j): 576%
- Nombre d'animaux survivants ([2]; 1 g/kg x 3/j): 5/5
- T/Cx100 ([2]; 1 g/kg x 4/j): 576%
- Nombre d'animaux survivants ([2]; 1 g/kg x 4/j): 5/5
